In patent publication US4764461A, “Tellurium and selenium compounds for the induction of in vivo and in vitro production of cytokines” (priority 1987, dated 1988):
“And” between values parts separate entries of the source, which are not always exact repeats. Equal entries are not always repeated. “Also recorded” adds a separate entry of the source.

What was measured:
[1] = system: West Nile virus (WNV); test: West Nile virus infection in mice (Example 22); assay type: in vivo, ICR mice
Description: The effect of the compound of Example 1 on an infection with West Nile virus (WNV) was determined. WNV is a toga virus of the flavivirus group, a positive single stranded RNA virus, which when injected IP to mice usually kills them within 5-8 days as a result of extensive damage to the central nervous system. For this study ICR mice (3 wks of age) were injected IP with the virus at the concentration of 10^3 or 10^4 LD 50 units/mouse. Injections of 10 μg/0.2 ml PBS/mouse of the compound of Ex. 1 were given on day -1 (one day prior to injection of virus) and 6 days after injection of virus.
In a second experiment, mice were injected with 10^3 IPLD50 virus and received injections of the compound of Example 1 (1 μg/0.2 ml PBS/mouse) on days -1, 1, 2 and 4.

[2] = system: mice; test: Preliminary toxicity studies in mice; assay type: in vivo; settings: 6 week old mice
Description: The compounds may be used as anti-bacterial or anti-viral agents in plants or in animals. Virus infections such as West Nile virus infections in mice are susceptible to the compound of the Example 1 at a dose of 10 μg/day/mouse. Plant bacterial infections such as crown gall caused by Agrobacterium tumefaciens may be treated or prevented by the application of a 0.1% solution of compounds of the invention.

[3] = system: fibrosarcoma cells; test: Survival of mice with methylcholanthrene-induced fibrosarcoma cells (Example 6); assay type: in vivo, Balb-c mice; settings: until just after the increased dosage regimen (day 39)
Description: Balb-c mice, age 7 weeks were injected with methylcholanthrene to induce the formation of fibrosarcoma cells according to the procedure of Example 5. The test animals were divided into two groups.
(a) control (0.2 IP of 40% DMSO and 60% PBS)

[4] = system: IL-2; mouse spleen cells; test: In vitro induction of IL-2 from mouse spleen cells (Example 7); assay type: cell-based, Balb-c mice; settings: baseline 4,000-5,000 CPM
Description: (§1) This example describes the in vitro making of IL-2 and CSF from mouse spleen cells using the compound of Example 1 as the extrinsic stimulating agent.
(§2) Spleens were removed from 15, male Balb-c mice 6 to 8 weeks of age. The spleen cells were pushed through stainless steel 60 mesh (U.S. standard) nets resting in […] Petri dishes containing PBS in order to separate the cells. The cells were then collected into centrifuge tubes and spun at 1000 rpm for 10 minutes. The supernatant was discarded and cells were treated with 5 ml of hypotonic buffer (0.15MNH4 Cl; 0.01M KHCO3 dissolved in double distilled water, pH 7.2) for exactly two minutes. Thereafter, PBS was added to the cells and the test tubes were centrifuged for 10 minutes at 1000 rpm. The cells were rinsed twice and counted in a heamocytometer using trypan blue to test for viability. The cells were brought to a concentration of 10^7 viable cells/ml. The cells were contacted with varying amounts of the compound of Example 1 in 1 ml of 40% DMSO 60% PBS.

[5] = system: IL-2; test: Oral administration: induction of lymphokines, IL-2 content of spleen cell supernatants (Example 13); assay type: in vivo, Balb-C mice; settings: for IL-2, percent increase as compared to control: 4 days
Description: The water solution was prepared by dissolving the compounds in PBS at a concentration of 50 μg/ml PBS and diluting the resulting solution to the desired concentration. The compounds were administered over a 4 day period. The exact amount of liquid intake was recorded daily. […] The cells were incubated at a concentration of 10^7 cells/ml in enriched RPMI containing 2 μg/ml of con-A for 24 hours at 37° C. The supernatants were collected and tested for IL-2 content.
After 24 hours the mice were sacrificed and the spleens were processed as described above.

[6] = system: IL-2; human mononuclear cells; test: IL-2 production by human mononuclear cells of normal donors and systemic lupus patients, with or without PHA (Example 20); assay type: cell-based
Description: Using the procedure of Example 4, human mononuclear cells were tested for their ability to produce IL-2 after induction with PHA or in unstimulated cells from normal donors and from patients suffering from systemic lupus erthyrematous. The IL-2 content was tested according to the procedure of Example 3 using the CTLD IL-2 dependent cell line.
*Dilution of 1 part of 0.2 ml of PBS containing 5 μg of compound of Ex
**CPM × 10^-3 of ^3 H Thymidine of 5 × 10^4 CTLD
cells in presence of 1:2 dilution of the supernatants as in Ex. 3. PG,4

[7] = system: CSF; mouse spleen cells; test: In vitro induction of colony stimulating factor (CSF) from mouse spleen cells (Example 7); assay type: cell-based, Balb-c mice; settings: baseline 70-80 colonies/dish
Description: as §1, §2

[8] = system: West Nile virus (WNV); test: WNV yield in mouse macrophage cultures (Example 23); assay type: cell-based, WNV in ICR mouse macrophages; settings: for Virus Yield (PFU/ml): virus alone 2 × 10^4 /ml
Description: Varying amounts of the compound of Example 1 (5 μg, 1 μg, 0.1 μg) were incubated with a monolayer of mouse macrophages for 24 h. […] All cultures were then infected with 10^4 PFU/plate. After 72 h incubation the supernatants were collected and the virus was titrated against Vera cells.

[9] = system: IL-2; human mononuclear cells; test: IL-2 activity of human mononuclear cell supernatants on CTLD cells (Example 8); assay type: cell-based; settings: control CTLD cells 3,500
Description: Human mononuclear cells were obtained as described above and cultured for 72 hours at a concentration of 10^6 cells/ml enriched RPMI, in the presence of varying concentrations of the compound of Example 1. Culture supernatants were collected, centrifuged and tested for IL-2 activity by using 50% of the volume of the supernatant assaying their ability to support the proliferation of the IL-2 dependent cell line CTLD.

[10] = system: IL-2; spleen cells; test: In vitro IL-2 secretion of mouse spleen cells, CTLD assay (Example 17); assay type: cell-based, Balb/c mice; settings: IL-2 activity, 24 h; for Spleen Cells (cpm): control 2,550
Description: The compounds listed below were tested in vitro at various concentrations that ranged from 10 μg/ml cells to 1×10^-6 μg/ml of cell mixtures. Cells were obtained from spleens of male Balb/c mice 6-8 weeks of age. Spleens were pushed through a stainless steel 60 mesh strainer to separate cells.

[11] = system: IL-2 receptors; human mononuclear cells; test: Detection of IL-2 receptor sites with fluoresceinated antibody (Example 21); assay type: cell-based; settings: 1 μg/ml, 24 h; control 2%
Description: This example provides an assay to detect the presence of receptor sites for IL-2. […] The cells were washed twice with PBS and then incubated with a specific fluoresceinated antibody against IL-2 receptors as described in Uchiyama et al, J. Immunol.

[12] = system: IL-2 receptors of human mononuclear cells; test: Induction of IL-2 receptors of human mononuclear cells, proliferation by 3HT uptake (Example 18); assay type: cell-based
Description: Human MNC were brought to a concentration of 10^6 cells/ml. RPMI+10% FCS. Aliquots of 0.2 ml. were placed in duplicate wells of microdishes and plates were incubated at 37 C for 24 hrs. […] Plates were further incubated for 48 hrs. and labelled with 3H thymidine 24 hrs. before harvesting.
The proliferation was measured by ^3 HT uptake as described by Gillis et al, J. Immunol. […] The results are expressed in counts per minute.

[13] = system: human mononuclear cells; test: Proliferation of human mononuclear cells (Example 19); assay type: cell-based; settings: at any concentration that was tested
Description: Human mononuclear cells were obtained by layering heparinized blood over a Ficoll/Hypaque gradient. The mononuclear cells were resuspended in enriched RPMI, rinsed three times and brought to a concentrations of 5×10^5 cells/ml encriched RPMI. […] Aliquots of 0.2 ml of each sample were placed in wells of microplates (triplicates). Microplates were incubated for 72 hours at 37° C. after which they were labelled with H^3 methyl-thymidine 1 uCi/well for an additional 24 hours. Cells were then harvested with a cell harvester.

## Cl[TeH]1(Cl)(Cl)OCCO1 [Example 1]
[1]; 10 μg/day/mouse
  West Nile virus infections in mice: susceptible
[1]; 10^3 or 10^4 LD50 virus, 10 μg/mouse
  animals remained alive after 8 days: three out of five
[1]; Table A, no virus (0), compound alone
  # Alive/Total Animals: 6/6
[1]; second experiment, after day 8
  further survival of the remaining three mice: Two out of the remaining three survived an additional 8 days; also recorded: the third remained alive without any manifestations of clinical symptoms
[1]; second experiment, day 8, 10^3 IPLD50 virus, 1 μg/mouse on days -1, 1, 2 and 4, virus alone 0/8
  # Alive/Total: 3 out of 5 and 3/5
[1]; second experiment, day 8, compound alone, no virus
  # Alive/Total: 5/5
[2]
  LD50: 300 ug./25 g of body weight
[3]
  mortality results for group (b): 0%
[4]; 5 pg
  IL-2 (cpm): 12,000 cpm
[4]; 50 pg
  IL-2 (cpm): 38,000 cpm
[4]; 500 pg
  IL-2 (cpm): 30,000 cpm
[4]; 5 ng
  IL-2 (cpm): 15,000 cpm
[4]; 50 ng
  IL-2 (cpm): 6,000 cpm
[4]; 500 ng
  IL-2 (cpm): 5,000 cpm
[4]; 5 μg
  IL-2 (cpm): 5,000 cpm
[4]; 50 μg
  IL-2 (cpm): 5,000 cpm
[5]; 1 μg/ml drinking water
  IL-2, percent increase as compared to control: 50%
[5]; given in dry form or when hydrolyzed in an aqueous diluent
  inducing lymphokine production: active for inducing lymphokine production
[6]; SLE, PHA +, 5 μg 0.2 ml PBS
  IL-2 production, CPM × 10^-3 of 3H thymidine: 6.3 CPM × 10^-3 and 8.2 CPM × 10^-3 and 4.1 CPM × 10^-3
[6]; SLE, PHA +, 1:100 PBS
  IL-2 production, CPM × 10^-3 of 3H thymidine: 24.0 CPM × 10^-3
[6]; SLE, PHA -, 5 μg 0.2 ml PBS
  IL-2 production, CPM × 10^-3 of 3H thymidine: 2.0 CPM × 10^-3 and 2.4 CPM × 10^-3
[6]; normal, PHA -, 5 μg 0.2 ml PBS
  IL-2 production, CPM × 10^-3 of 3H thymidine: 2.3 CPM × 10^-3 and 2.1 CPM × 10^-3
[7]; 5 pg
  CSF (colonies/dish): 140 colonies/dish
[7]; 50 pg
  CSF (colonies/dish): 260 colonies/dish
[7]; 5 ng
  CSF (colonies/dish): 120 colonies/dish
[7]; 50 ng
  CSF (colonies/dish): 75 colonies/dish
[7]; 500 ng
  CSF (colonies/dish): 25 colonies/dish
[7]; 5 μg
  CSF (colonies/dish): 5 colonies/dish
[7]; 50 μg
  CSF (colonies/dish): 2 colonies/dish
[8]; 0.1 μg
  reduction in virus yield: ten
[8]; 0.1 μg/plate
  Virus Yield (PFU/ml): 2 × 10^3 PFU/ml
[8]; 1 μg/plate
  Virus Yield (PFU/ml): 5 × 10^2 PFU/ml
[9]; 1 ng
  IL-2 activity, Counts per minute: 11,000 Counts per minute
[9]; 10 ng
  IL-2 activity, Counts per minute: 1,500 Counts per minute
[9]; 1 μg
  IL-2 activity, Counts per minute: 250 Counts per minute
[9]; 100 μg
  IL-2 activity, Counts per minute: 280 Counts per minute

## Cl[Te]1(Cl)OCCO1 [Example 2]
[10]
  Spleen Cells (cpm): 18,000 cpm
[5]; 1 μg/ml drinking water
  IL-2, percent increase as compared to control: 30%
[5]; 25 μg/ml drinking water
  IL-2, percent increase as compared to control: 35%

## CC(=O)O[Te](OC(C)=O)(c1ccccc1)c1ccccc1 [Ph2 Te(OCOCH3)2]
[10]
  Spleen Cells (cpm): 3,500 cpm

## O=C(O[Te](OC(=O)c1ccccc1)(c1ccccc1)c1ccccc1)c1ccccc1 [Ph2 Te(OCOPh)2]
[10]
  Spleen Cells (cpm): 4,300 cpm

## Cl[Te](Cl)(c1ccccc1)c1ccccc1 [Ph2 TeCl2]
[10]
  Spleen Cells (cpm): 2,300 cpm

## Cl[Te](Cl)(Cl)c1ccccc1 [PhTeCl3]
[10]
  Spleen Cells (cpm): 18,000 cpm

## O=[Te]=O [TeO2, Tellurium dioxide]
[11]
  cells positive for IL-2 receptors: 5%
[12]; Test A, 1 μg/ml, control 2338
  proliferation (3HT uptake), counts per minute: 1563 counts per minute
[12]; Test A, 1 × 10^-2 μg/ml, control 2338
  proliferation (3HT uptake), counts per minute: 3108 counts per minute
[12]; Test A, 1 × 10^-3 μg/ml, control 2338
  proliferation (3HT uptake), counts per minute: 2867 counts per minute
[12]; Test A, 1 × 10^-4 μg/ml, control 2338
  proliferation (3HT uptake), counts per minute: 5540 counts per minute
[12]; Test A, 1 × 10^-5 μg/ml, control 2338
  proliferation (3HT uptake), counts per minute: 3442 counts per minute
[12]; Test A, 5 × 10^-1 μg/ml, control 2338
  proliferation (3HT uptake), counts per minute: 4667 counts per minute
[12]; Test A, 5 × 10^-2 μg/ml, control 2338
  proliferation (3HT uptake), counts per minute: 2515 counts per minute
[12]; Test A, 7 × 10^-1 μg/ml, control 2338
  proliferation (3HT uptake), counts per minute: 2475 counts per minute
[12]; Test B, 1 μg/ml, control 5573
  proliferation (3HT uptake), counts per minute: 3275 counts per minute
[12]; Test B, 1 × 10^-2 μg/ml, control 5573
  proliferation (3HT uptake), counts per minute: 3077 counts per minute
[12]; Test B, 1 × 10^-3 μg/ml, control 5573
  proliferation (3HT uptake), counts per minute: 3800 counts per minute
[12]; Test B, 1 × 10^-4 μg/ml, control 5573
  proliferation (3HT uptake), counts per minute: 2925 counts per minute
[12]; Test B, 1 × 10^-5 μg/ml, control 5573
  proliferation (3HT uptake), counts per minute: 3645 counts per minute
[12]; Test B, 5 × 10^-1 μg/ml, control 5573
  proliferation (3HT uptake), counts per minute: 5405 counts per minute
[12]; Test B, 5 × 10^-2 μg/ml, control 5573
  proliferation (3HT uptake), counts per minute: 4280 counts per minute
[12]; Test B, 7 × 10^-1 μg/ml, control 5573
  proliferation (3HT uptake), counts per minute: 4302 counts per minute
[10]
  Spleen Cells (cpm): 17,055 cpm
[10]; control 2,550 cpm
  Spleen Cells, percent increase: 508%
[13]
  effect on proliferation: No significant effect

## Ph2 TeCl
[10]
  Spleen Cells (cpm): 2,100 cpm
